According to patent US10208033B2, “β-carboline, dihydro-β-carboline and tetrahydro-β-carboline alkaloid derivatives and preparation methods same and use in aspects of preventing and treating plant viruses, fungicides and insecticides” (NANKAI UNIVERSITY, priority 2013, dated 2019):
Where a name gives a salt, the structure may show the parent alone. Read-outs that look alike come from different tables or passages of the source.

Experiments:
[1] = tested on: tobacco mosaic virus (TMV); experiment: Anti-TMV in vivo therapeutic effect; set-up: species or system tobacco mosaic virus (host Nicotiana tabacum L.cv.Xanthi NN)
Rhizoctonia solani = experiment: Fungicidal (bactericidal) activity in vitro, PDA colony diameter; type: cell-based; conditions: 50 mg/kg
mosquito larvae = experiment: whole plant or invertebrate; conditions: 24 h
Procedure: Experimental method of mosquito larvae: culex pipiens pallens, a normal colony raised indoors. Weigh about 5 mg of the compound for test, put it in a penicillin vial, add 5 mL of acetone (or an appropriate solvent), and shake and dissolve it to obtain a 1000 ppm mother solution. Pipette 0.5 mL of the mother solution, add it to a 100 mL beaker filled with 89.9 mL of water, select 10 mosquito larvae at the beginning of the fourth instar, and pour them to a beaker together with 10 mL of feeding solution. The concentration of the drug solution is 5 ppm. […] Use an aqueous solution containing 0.5 mL of test solvent as a blank.

[2] = tested on: tobacco mosaic virus (TMV); experiment: Anti-TMV in vivo protective effect; set-up: species or system tobacco mosaic virus (host Nicotiana tabacum L.cv.Xanthi NN)
Rhizoctonia cereali = experiment: Fungicidal (bactericidal) activity in vitro, PDA colony diameter; type: cell-based; conditions: 50 mg/kg
Macrophoma kawatsukai = experiment: as above; type: cell-based; conditions: 50 mg/kg
[3] = tested on: Colletotrichum orbiculare; experiment: as above; type: cell-based; conditions: 50 mg/kg
cotton bollworms = experiment: whole plant or invertebrate; conditions: concentration 600 mg/kg
Procedure: Experimental method of cotton bollworms: feed and drug mixing method: measure 3 mL of prepared solution and add it to about 27 g of newly prepared feed, thereby obtaining needed concentration through dilution by 10 times.

potato late blight = experiment: microbe, parasite or virus in culture; type: cell-based
[4] = tested on: tobacco mosaic virus (TMV); experiment: Anti-TMV in vitro effect (half-leaf soaking); type: cell-based, tobacco mosaic virus (host Nicotiana tabacum L.cv.Xanthi NN)
Fusarium graminearumt = experiment: microbe, parasite or virus in culture; type: cell-based; conditions: 50 mg/kg
armyworms = type: in vivo; conditions: concentration 600 mg/kg
cucumber fusarium wilt = experiment: Fungicidal (bactericidal) activity in vitro, PDA colony diameter; type: cell-based; conditions: 50 mg/kg
corn borers = conditions: concentration 600 mg/kg
[5] = tested on: tobacco mosaic virus (TMV); experiment: Anti-TMV in vivo inactivation; set-up: species or system tobacco mosaic virus (host Nicotiana tabacum L.cv.Xanthi NN)
Fusarium fujikuroi = experiment: Fungicidal (bactericidal) activity in vitro, PDA colony diameter; type: cell-based; conditions: 50 mg/kg
Bipolaria maydis = experiment: organism not typed; type: cell-based; conditions: 50 mg/kg
Sclerotinia scleotiorum = experiment: Fungicidal (bactericidal) activity in vitro, PDA colony diameter; type: cell-based; conditions: 50 mg/kg
Cercospora arachidicola = experiment: as above; type: cell-based; conditions: 50 mg/kg
Alternaria solani = experiment: as above; type: cell-based; conditions: 50 mg/kg
Phytophthora capsici = experiment: as above; type: cell-based; conditions: 50 mg/kg
Botrytis cinerea = experiment: as above; type: cell-based; conditions: 50 mg/kg

Compound	Relative inhibition rate (%) In vivo therapy ([1]; treatment dose 100 μg/mL) [%]	Relative inhibition rate (%) In vivo therapy ([1]; treatment dose 500 μg/mL) [%]	Bactericidal activity (%) Rhizoctonia solani (Rhizoctonia solani) [%]	Mosquito larvae Mortality (%) (mosquito larvae; concentration 10 mg/kg)	Relative inhibition rate (%) In vivo protection ([2]; treatment dose 100 μg/mL) [%]	Relative inhibition rate (%) In vivo protection ([2]; treatment dose 500 μg/mL) [%]	Bactericidal activity (%) Rhizoctonia cereali (Rhizoctonia cereali) [%]	Bactericidal activity (%) Macrophoma kawatsukai (Macrophoma kawatsukai) [%]	Bactericidal activity (%) Colletotrichum orbiculare [3] [%]	Cotton bollworm Mortality (%) (cotton bollworms)	Relative inhibition rate (%) In vitro activity ([4]; treatment dose 100 μg/mL) [%]	Relative inhibition rate (%) In vitro activity ([4]; treatment dose 500 μg/mL) [%]	Bactericidal activity (%) Fusarium graminearumt (Fusarium graminearumt) [%]	Armyworm Mortality (%) (armyworms)	Bactericidal activity (%) Cucumber fusarium wilt (cucumber fusarium wilt) [%]	Corn borer Mortality (%) (corn borers)	Relative inhibition rate (%) In vivo inactivation ([5]; treatment dose 100 μg/mL) [%]	Relative inhibition rate (%) In vivo inactivation ([5]; treatment dose 500 μg/mL) [%]	Bactericidal activity (%) Fusarium fujikuroi (Fusarium fujikuroi) [%]	Bactericidal activity (%) Bipolaria maydis (Bipolaria maydis) [%]	other results
CCCCOC(=O)[C@@H]1Cc2c([nH]c3ccccc23)[C@H](C)N1 [Ib-8, (1S, 3S)-1-methyl-2,3,4,9-tetrahydropyridino [3,4-b] indol-3-butyl formate]	17.1	42.2	55.4	10	17.6	43.2	84.4	64.7	38.1	20	13.4	48.2	50.0	5	33.3	0	20.3	51.3	50.0	89.5	Bactericidal activity (%) potato late blight (potato late blight): 35.0%; Bactericidal activity (%) Sclerotinia scleotiorum (Sclerotinia scleotiorum): 72.0%; Bactericidal activity (%) Cercospora arachidicola (Cercospora arachidicola): 71.4%; Bactericidal activity (%) Alternaria solani (Alternaria solani): 83.3%; Bactericidal activity (%) Phytophthora capsici (Phytophthora capsici): 51.5%; Bactericidal activity (%) Botrytis cinerea (Botrytis cinerea): 50.0%
CCOC(=O)C1Cc2c([nH]c3ccccc23)CN1 (stereo not shown) [Ib-9, 2,3,4,9-tetrahydropyridino [3,4-b] indol-3-ethyl formate]	14.3	42.7	35.5	35	17.2	40.4	44.7	21.4	42.9	10	12.8	44.5	35.7	15	19.2	10	16.9	41	14.3	22.7	Bactericidal activity (%) potato late blight (potato late blight): 22.7%; Bactericidal activity (%) Sclerotinia scleotiorum (Sclerotinia scleotiorum): 19.6%; Bactericidal activity (%) Cercospora arachidicola (Cercospora arachidicola): 84.6%; Bactericidal activity (%) Alternaria solani (Alternaria solani): 26.3%; Bactericidal activity (%) Phytophthora capsici (Phytophthora capsici): 15.6%; Bactericidal activity (%) Botrytis cinerea (Botrytis cinerea): 12.1%
CCOC(=O)[C@@H]1Cc2c([nH]c3ccccc23)[C@H](CC)N1 [Ib-10, (1S, 3S)-1-ethyl-2,3,4,9-tetrahydropyridino [3,4-b] indol-3-ethyl formate]	11.4	38.1	21.4	60	10.7	36.6	65.6	64.7	42.9	15	0	34.1	35.7	30	23.8	25	12.6	46.4	35.7	31.6	Bactericidal activity (%) potato late blight (potato late blight): 30.0%; Bactericidal activity (%) Sclerotinia scleotiorum (Sclerotinia scleotiorum): 56.0%; Bactericidal activity (%) Cercospora arachidicola (Cercospora arachidicola): 21.4%; Bactericidal activity (%) Alternaria solani (Alternaria solani): 55.6%; Bactericidal activity (%) Phytophthora capsici (Phytophthora capsici): 45.5%; Bactericidal activity (%) Botrytis cinerea (Botrytis cinerea): 40.9%
CCOC(=O)[C@H]1Cc2c([nH]c3ccccc23)[C@@H](C)N1 [Ib-12, (1R,3R)-1-methyl-2,3,4,9-tetrahydropyridino [3,4-b] indol-3-ethyl formate]	12.9	38.6	42.1	100	17	41.9	39.5	54.8	25.0	30	12.6	40	26.2	50	19.2	50	16.7	35.8	28.6	18.2	Mosquito larvae Mortality (%) (mosquito larvae; concentration 5 mg/kg): 40%; Bactericidal activity (%) potato late blight (potato late blight): 18.2%; Bactericidal activity (%) Sclerotinia scleotiorum (Sclerotinia scleotiorum): 17.7%; Bactericidal activity (%) Cercospora arachidicola (Cercospora arachidicola): 92.3%; Bactericidal activity (%) Alternaria solani (Alternaria solani): 26.3%; Bactericidal activity (%) Phytophthora capsici (Phytophthora capsici): 9.4%; Bactericidal activity (%) Botrytis cinerea (Botrytis cinerea): 24.2%
CCOC(=O)C1Cc2c([nH]c3ccccc23)C(C)=N1 (stereo not shown) [Ib-14, 1-methyl-4,9-dihydro-pyridino [3,4-b] indol-3-ethyl formate]	15.9	45.8	59.2	30	21.4	47	65.8	33.3	42.9	30	11.1	42.6	42.9	10	23.1	10	0	35.7	28.6	36.4	Bactericidal activity (%) potato late blight (potato late blight; 50 mg/kg): 36.4%; Bactericidal activity (%) Sclerotinia scleotiorum (Sclerotinia scleotiorum): 29.4%; Bactericidal activity (%) Cercospora arachidicola (Cercospora arachidicola): 69.2%; Bactericidal activity (%) Alternaria solani (Alternaria solani): 42.1%; Bactericidal activity (%) Phytophthora capsici (Phytophthora capsici): 15.6%; Bactericidal activity (%) Botrytis cinerea (Botrytis cinerea): 36.4%
C[C@@H]1N[C@H](C(=O)NCCO)Cc2c1[nH]c1ccccc21 [Ib-18, (1S, 3S)—N-(2-ethoxyl)-1-methyl-2,3,4,9-tetrahydro-pyridino [3,4-b] indol-3-formamide]	18.6	40	35.7	10	12.1	41	53.1	70.6	23.8	5	5.4	37.6	28.6	5	23.8	5	10	41.5	35.7	26.3	Bactericidal activity (%) potato late blight (potato late blight): 5.0%; Bactericidal activity (%) Sclerotinia scleotiorum (Sclerotinia scleotiorum): 68.0%; Bactericidal activity (%) Cercospora arachidicola (Cercospora arachidicola): 21.4%; Bactericidal activity (%) Alternaria solani (Alternaria solani): 27.8%; Bactericidal activity (%) Phytophthora capsici (Phytophthora capsici): 36.4%; Bactericidal activity (%) Botrytis cinerea (Botrytis cinerea): 27.3%
